{
  "source": "ChEMBL document CHEMBL4145514",
  "about": "“Unexplored antifungal activity of linear battacin lipopeptides against planktonic and mature biofilms of C. albicans” (Eur J Med Chem, 2018)",
  "key": {"Lipid bilayer": {"system": "Lipid bilayer", "assay": "Disruption of phosphatidylcholine/ phosphatidylinositol/phosphatidylethanolamine membrane at 200 uM by colorimetric assay"}, "Candida albicans [1]": {"system": "Candida albicans", "assay": "Antifungal activity against Candida albicans SC5314 after 48 hrs", "assay_type": "functional", "conditions": "SC5314, 48 h"}, "Candida albicans [2]": {"system": "Candida albicans", "assay": "Induction of morphological changes in Candida albicans SC5314 assessed as necrosis of cytoplasm at 0.5 to 10 times MIC after 45 mins by Uranyl acetate/Lead citrate staining based transmission electron microscopic analysis", "assay_type": "functional, organism-based"}, "Candida albicans [3]": {"system": "Candida albicans", "assay": "Induction of eradication of 24 hrs old preformed Candida albicans SC5314 biofilm after 24 to 48 hrs by XTT assay", "assay_type": "functional"}, "Candida albicans [4]": {"system": "Candida albicans", "assay": "Induction of eradication of 48 hrs old preformed Candida albicans SC5314 biofilm up to 125 uM after 24 to 48 hrs by XTT assay", "assay_type": "functional, organism-based"}, "Candida albicans [5]": {"system": "Candida albicans", "assay": "Antibiofilm activity against Candida albicans SC5314 incubated for overnight by XTT assay", "assay_type": "functional"}, "Candida albicans [6]": {"system": "Candida albicans", "assay": "Induction of morphological changes in Candida albicans SC5314 assessed as disruption of fungal cell walls at 0.5 to 10 times MIC after 45 mins by Uranyl acetate/Lead citrate staining based transmission electron microscopic analysis", "assay_type": "functional, organism-based"}, "Candida albicans [7]": {"system": "Candida albicans", "assay": "Induction of morphological changes in Candida albicans SC5314 assessed as disruption of fungal cell membranes at 0.5 to 10 times MIC after 45 mins by Uranyl acetate/Lead citrate staining based transmission electron microscopic analysis", "assay_type": "functional, organism-based"}, "[8]": {"assay": "Haemolytic activity in mouse RBC at 6 uM incubated for 1 hr relative to control", "assay_type": "ADME, cell-based, Erythrocyte", "conditions": "mouse red blood cells (erythrocytes), read-out: Activity"}, "Candida albicans [9]": {"system": "Candida albicans", "assay": "Ratio of MIC for Candida albicans SC5314 to MIC for Candida albicans SC5314 in presence of 800 nmol AmB", "assay_type": "functional"}, "Candida albicans [10]": {"system": "Candida albicans", "assay": "Synergistic antifungal activity against Candida albicans SC5314 assessed as FIC index after 48 hrs in presence of 400 nmol AmB", "assay_type": "functional"}, "Candida albicans [11]": {"system": "Candida albicans", "assay": "Synergistic antifungal activity against Candida albicans SC5314 assessed as FIC index after 48 hrs in presence of 800 nmol AmB", "assay_type": "functional"}, "Candida albicans [12]": {"system": "Candida albicans", "assay": "Synergistic antifungal activity against Candida albicans SC5314 after 48 hrs in presence of 800 nmol AmB", "assay_type": "functional", "conditions": "SC5314, 48 h"}, "Candida albicans [13]": {"system": "Candida albicans", "assay": "Potency index, ratio of MIC for polymyxin B to compound MIC for antifungal activity against Candida albicans SC5314", "assay_type": "functional"}, "Candida albicans [14]": {"system": "Candida albicans", "assay": "Ratio of MIC for Candida albicans SC5314 to MIC for Candida albicans SC5314 in presence of 400 nmol AmB", "assay_type": "functional"}, "Candida albicans [15]": {"system": "Candida albicans", "assay": "Synergistic antifungal activity against Candida albicans SC5314 after 48 hrs in presence of 400 nmol AmB", "assay_type": "functional", "conditions": "SC5314, 48 h"}},
  "note": "The source made the active and inactive calls. No cut-off for these calls is given here. Square brackets hold non-standard residues; d marks the D form. Peptide text beside a SMILES is read from it. * marks the point of attachment. ξ: configuration not given here. Hexanoyl(4ξ-Me) = CCC(C)CCC(=O)*; dDab = NCC[C@@H](N)C(=O)O; Dab = NCC[C@H](N)C(=O)O",
  "data": [
    {"smiles": "CCC(=O)N[C@H](CCN)C(=O)N[C@@H](CCN)C(=O)N[C@@H](CCN)C(=O)N[C@@H](CC(C)C)C(=O)N[C@H](Cc1ccccc1)C(=O)N[C@@H](CCN)C(=O)N[C@@H](CCN)C(=O)N[C@@H](CC(C)C)C(N)=O", "values": [
      {"measurement": "Activity", "setting": "Lipid bilayer", "value": "inactive"},
      {"measurement": "MIC", "setting": "Candida albicans [1]", "value": "> 100", "unit": "µM"}
    ]},
    {"smiles": "CCC(C)CCC(=O)N[C@H](CCN)C(=O)N[C@@H](CCN)C(=O)N[C@@H](CC(C)C)C(=O)N[C@H](Cc1ccccc1)C(=O)N[C@@H](CCN)C(N)=O", "note": "(stereo partly drawn) ({Hexanoyl(4ξ-Me)}-[dDab][Dab]L[dF][Dab]-NH2)", "values": [
      {"measurement": "MIC", "setting": "Candida albicans [1]", "value": "> 100", "unit": "µM"}
    ]},
    {"smiles": "C[C@@H]1[C@H](O)[C@@H](C)/C=C/C=C/C=C/C=C/C=C/C=C/C=C/[C@H](O[C@@H]2O[C@H](C)[C@@H](O)[C@H](N)[C@@H]2O)C[C@@H]2O[C@](O)(C[C@@H](O)C[C@@H](O)[C@H](O)CC[C@@H](O)C[C@@H](O)CC(=O)O[C@H]1C)C[C@H](O)[C@H]2C(=O)O", "note": "[AMPHOTERICIN B]", "values": [
      {"measurement": "Activity", "setting": "Candida albicans [2]", "value": "Active"},
      {"measurement": "MBEC50", "setting": "Candida albicans [3]", "value": 6.25, "unit": "µM"},
      {"measurement": "Activity", "setting": "Candida albicans [4]", "value": "inactive"},
      {"measurement": "MBIC50", "setting": "Candida albicans [5]", "value": 0.78, "unit": "µM"},
      {"measurement": "Activity", "setting": "Candida albicans [6]", "value": "Active"},
      {"measurement": "MIC", "setting": "Candida albicans [1]", "value": 1.56, "unit": "µM"},
      {"measurement": "Activity", "setting": "Candida albicans [7]", "value": "Active"},
      {"measurement": "hemolysis at 1 h, 6 µM", "setting": "[8]", "value": 50, "unit": "%"}
    ]},
    {"smiles": "CCCC(=O)N[C@H](CCN)C(=O)N[C@@H](CCN)C(=O)N[C@@H](CCN)C(=O)N[C@@H](CC(C)C)C(=O)N[C@H](Cc1ccccc1)C(=O)N[C@@H](CCN)C(=O)N[C@@H](CCN)C(=O)N[C@@H](CC(C)C)C(N)=O", "values": [
      {"measurement": "Activity", "setting": "Lipid bilayer", "value": "inactive"},
      {"measurement": "MIC", "setting": "Candida albicans [1]", "value": "> 100", "unit": "µM"}
    ]},
    {"smiles": "CCCCC(=O)N[C@H](CCN)C(=O)N[C@@H](CCN)C(=O)N[C@@H](CCN)C(=O)N[C@@H](CC(C)C)C(=O)N[C@H](Cc1ccccc1)C(=O)N[C@@H](CCN)C(=O)N[C@@H](CCN)C(=O)N[C@@H](CC(C)C)C(N)=O", "values": [
      {"measurement": "Activity", "setting": "Lipid bilayer", "value": "inactive"},
      {"measurement": "MIC", "setting": "Candida albicans [1]", "value": "> 100", "unit": "µM"}
    ]},
    {"smiles": "CC(C)C[C@H](NC(=O)[C@H](CCN)NC(=O)[C@H](CCN)NC(=O)[C@@H](Cc1ccccc1)NC(=O)[C@H](CC(C)C)NC(=O)[C@H](CCN)NC(=O)[C@H](CCN)NC(=O)[C@@H](CCN)NC(=O)OCC1c2ccccc2-c2ccccc21)C(N)=O", "values": [
      {"measurement": "MIC", "setting": "Candida albicans [1]", "value": 12.5, "unit": "µM"}
    ]},
    {"smiles": "CCC(C)CCC(=O)N[C@H](CCCCN)C(=O)N[C@@H](CCCCN)C(=O)N[C@@H](CCCCN)C(=O)N[C@@H](CC(C)C)C(=O)N[C@H](Cc1ccccc1)C(=O)N[C@@H](CCCCN)C(=O)N[C@@H](CCCCN)C(=O)N[C@@H](CC(C)C)C(N)=O", "note": "(stereo partly drawn)", "values": [
      {"measurement": "MIC", "setting": "Candida albicans [1]", "value": "> 100", "unit": "µM"}
    ]},
    {"smiles": "CCC(C)CCC(=O)N[C@H](CCN)C(=O)N[C@@H](CCN)C(=O)N[C@@H](CCN)C(=O)N[C@@H](CC(C)C)C(=O)N[C@H](Cc1ccccc1)C(=O)N[C@@H](CCN)C(=O)N[C@@H](CCN)C(=O)N[C@@H](CC(C)C)C(N)=O", "note": "(stereo partly drawn) ({Hexanoyl(4ξ-Me)}-[dDab][Dab][Dab]L[dF][Dab][Dab]L-NH2)", "values": [
      {"measurement": "Ratio", "setting": "Candida albicans [9]", "value": "8 - 32"},
      {"measurement": "fractional inhibitory concentration index (FICI)", "setting": "Candida albicans [10]", "value": 8.26},
      {"measurement": "fractional inhibitory concentration index (FICI)", "setting": "Candida albicans [11]", "value": 1.03},
      {"measurement": "MIC", "setting": "Candida albicans [1]", "value": 50, "unit": "µM"},
      {"measurement": "MIC", "setting": "Candida albicans [12]", "value": 1.56, "unit": "µM"},
      {"measurement": "Ratio", "setting": "Candida albicans [13]", "value": 2},
      {"measurement": "Ratio", "setting": "Candida albicans [14]", "value": 4},
      {"measurement": "MIC", "setting": "Candida albicans [15]", "value": 12.5, "unit": "µM"}
    ]},
    {"smiles": "CC(C)C[C@H](NC(=O)[C@H](CCN)NC(=O)[C@H](CCN)NC(=O)[C@@H](Cc1ccccc1)NC(=O)[C@H](CC(C)C)NC(=O)[C@H](CCN)NC(=O)[C@H](CCN)NC(=O)[C@@H](CCN)NC(=O)[C@H](N)CS)C(N)=O", "values": [
      {"measurement": "MIC", "setting": "Candida albicans [1]", "value": "> 100", "unit": "µM"}
    ]},
    {"smiles": "CCC(C)CCC(=O)N[C@H](CCN)C(=O)N[C@@H](CCN)C(=O)N[C@@H](CCN)C(=O)N[C@@H](CC(C)C)C(=O)N[C@H](Cc1ccccc1)C(=O)N[C@@H](CCN)C(=O)N[C@@H](CCN)C(=O)N[C@@H](CC(C)C)C(=O)N[C@H](CCN)C(=O)N[C@@H](CCN)C(=O)N[C@@H](CCN)C(=O)N[C@@H](CC(C)C)C(=O)N[C@H](Cc1ccccc1)C(=O)N[C@@H](CCN)C(=O)N[C@@H](CCN)C(=O)N[C@@H](CC(C)C)C(N)=O", "note": "(stereo partly drawn)", "values": [
      {"measurement": "Ratio", "setting": "Candida albicans [9]", "value": "8 - 32"},
      {"measurement": "fractional inhibitory concentration index (FICI)", "setting": "Candida albicans [10]", "value": 2.24},
      {"measurement": "fractional inhibitory concentration index (FICI)", "setting": "Candida albicans [11]", "value": 1.12},
      {"measurement": "MIC", "setting": "Candida albicans [1]", "value": 12.5, "unit": "µM"},
      {"measurement": "MIC", "setting": "Candida albicans [12]", "value": 1.56, "unit": "µM"},
      {"measurement": "Ratio", "setting": "Candida albicans [14]", "value": 4},
      {"measurement": "MIC", "setting": "Candida albicans [15]", "value": 3.12, "unit": "µM"}
    ]}
  ]
}
